Where “and” joins values, the source holds several entries; their conditions need not be identical. Equal entries are not always repeated.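 Five concentrations, 48 hours, 96-well plates. At the GI50, growth is halved. TGI denotes the concentration required for complete inhibition of growth.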

Common to all, as to experiment: NCI tumour cell line growth inhibition, 48 h
In test [1] the test system is 786-0 renal.
In test [2] the test system is COLO 205 colon.
For test [3], the system named is HS 578T breast.
For test [4], the system named is K-562 leukemia.
The subject of test [5] is MCF7 breast.
In test [6] the test system is OVCAR-4 ovarian.
For test [7], the system named is RXF 393 renal.
Test [8] has as its system SF-295 CNS.
Test [9] concerns SF-539 CNS.
For test [10], the system named is SR leukemia.

Take `O=C1/C(=C\c2ccc([N+](=O)[O-])cc2)CS(=O)(=O)C/C1=C/c1ccc([N+](=O)[O-])cc1`: the GI50 is 133 nM in test [1]; 252 nM in test [2]; 447 nM in [3]; 157 nM in [5]; 207 nM in test [6]; 563 nM in test [8]. Besides, the GI50 was 136 nM in [9] and 908 nM in test [10]. Further, the TGI in test [1] is 356 nM and 359 nM; in test [2], 983 nM and 645 nM; in test [3] it was 39400 nM; in [4] it was above 100000 nM; in test [5], 2120 nM; in [6], 612 nM and 1370 nM. For the same compound, the TGI in test [7] is 1450 nM; in test [8] it was 6420 nM; in test [9] it was 579 nM and 363 nM.
On to `CCN1CCN(CC(=O)Nc2nc3ccc(NCc4ccc(C)cc4)cc3s2)CC1`, for which the GI50 was 4240 nM in test [1]; 1030 nM in [2]; 5120 nM in [3]; 949 nM in [4]; 1810 nM in [5]; 6240 nM in [6]. Also, the GI50 was 1990 nM in [7], 2400 nM in test [8], 1500 nM in [9] and 1800 nM in test [10]. In addition, the TGI in test [1] is 10900 nM; in test [2], 2100 nM; in test [3], 15900 nM; in [4] it was 2090 nM; in test [5], 8410 nM; in test [6] it was 16200 nM. In addition, the TGI is 8500 nM in [7], 9060 nM in test [8], 4300 nM in [9] and 8370 nM in test [10].
With `CCCCCCCCn1ccc2cc(NC(=O)Cn3cc(CN4CCC(C)CC4)nn3)ccc21`, the GI50 in test [1] is 1480 nM; in [2], 1820 nM; in [3], 1600 nM; in test [4] it was 1610 nM; in [5], 1650 nM; in test [6], 2070 nM. The GI50 in test [7] was 1500 nM; in [8] it was 1860 nM; in test [9] it was 1700 nM; in [10] it was 1900 nM. In addition, the TGI in test [1] amounted to 2810 nM; in [2], 3460 nM; in test [3] it was 4120 nM; in [4], 3510 nM; in [5], 3250 nM; in test [6], 4850 nM. Moreover, the TGI in [7] amounted to 3080 nM; in test [8], 3500 nM; in [9] it was 3080 nM; in test [10], 5240 nM.
`COC(=O)c1c2c(c(C)[n+]([O-])c1C)C(=O)C=C(NCc1ccc(Br)cc1)C2=O`: the GI50 in test [1] was 637 nM; in [2], 322 nM; in test [3] it was 2400 nM; in [4], 47.2 nM; in test [5], 255 nM; in test [6], 181 nM. The GI50 in [7] was 1090 nM; in [8] it was 242 nM; in test [9] it was 720 nM; in test [10], 1700 nM. Also, the TGI in test [1] was 2230 nM; in test [2], 1170 nM; in test [3] it was 8050 nM; in test [4], above 100000 nM; in test [5], 1070 nM; in test [6], 1040 nM. Also, the TGI was 2540 nM in test [7], 1320 nM in test [8], 2000 nM in test [9] and above 100000 nM in test [10].
In the case of `O=Cc1c[nH]c2ccc(-c3csc4ccccc34)cc12`, the GI50 was 4260 nM in test [1]; 4460 nM in test [2]; 2300 nM in [3]; 1690 nM in test [4]; 3480 nM in [5]; 5120 nM in [6]. The GI50 in test [7] is 1580 nM; in test [8] it was 2640 nM; in test [9] it was 2410 nM; in [10], 1120 nM. For the same compound, the TGI in test [1] is 41900 nM; in test [2], above 100000 nM; in test [3], 9550 nM; in test [4], above 100000 nM; in [5], above 100000 nM; in [6], above 100000 nM. Further, the TGI in test [7] was determined as 5130 nM; in [8], 13100 nM; in test [9], 7520 nM; in test [10], 10900 nM.
Turning to `CCCCCCCCCCCCNC(=O)[C@H]1CSC(c2cc(Br)cs2)N1` (some centres not stated), the GI50 is 2510 nM in test [1]; 8160 nM in test [2]; 1090 nM in test [3]; 1130 nM in test [4]; 2160 nM in test [5]; 917 nM in test [6]. Moreover, the GI50 in [7] was 1180 nM; in test [8] it was 1420 nM; in [9], 950 nM; in test [10], 967 nM. For the same compound, the TGI in [1] was 8320 nM; in [2], 16000 nM; in test [3] it was 2510 nM; in test [4] it was 2460 nM; in [5], 8820 nM; in test [6], 1950 nM. The TGI came to 2600 nM in test [7], 5010 nM in test [8], 1870 nM in test [9] and 2270 nM in test [10].
Consider `Cc1ccc2nc3sc(=O)sc3nc2c1`, for which the TGI came to 28800 nM in test [1]; 27800 nM in [2]; 61800 nM in test [3]; 75600 nM in test [4]; 31400 nM in [5]; 26800 nM in [6]. Moreover, the TGI in [7] came to 67800 nM; in [8] it was 31000 nM; in test [9], 35100 nM; in test [10] it was 80200 nM.
In the case of `COc1cc(-c2ccc(Nc3ccccc3C(=O)O)c(OC)c2)ccc1Nc1ccccc1C(=O)O`, the TGI in test [1], in [2], in test [3], in test [4], in [5] and in test [6] was above 100000 nM each time. Also, the TGI in test [7] is 83300 nM; in test [8] it was above 100000 nM; in [9], 45000 nM; in test [10], above 84600 nM.

The values above are taken from PubChem BioAssay (NCI).
